Source: ChEMBL document CHEMBL5724696, “Autophagy assay results for EUbOPEN Chemogenomics Library” (2024)
Several values for one entry are separate records, joined by “and”; a condition that tells them apart may be missing. Equal values may be shown once.

Columns and labels:
Assay type in all cases: functional, Homo sapiens
U2OS [1] = assay: (§1) Here: values are normalized to the negative (DMSO; defined as 0% autophagy induction) and positive (250nM Torin1; mTOR inhibitor; defined as maximal inducer of autophagy = 100%) control compounds and represented as % of autophagy induction. […] The impact of autophagy induction on cells is complex and depends on the affected target. As such, the magnitude of a phenotype may not be equally mirrored in the %-value of autophagy induction and vice versa. The dynamics of the induction may indicate the mode of activation: e.g. activation via phosphorylation or a signaling cascade may occur fast, while activation via transcription factors may take considerably longer. […] Of note, treatment concentrations may be sub-optimal for specific compounds, leading to false negative annotations.; conditions: Culturing Media DMEM, 1 % Penicillin/Streptomycin, 10% Fetal bovin serum Add-On: No, Screening Media Control DMEM, Screening Media Samples DMEM
TERT-RPE1 = assay: as §1; conditions: Culturing Media DMEM/F12 (1:1), 1 % Penicillin/Streptomycin, 10% Fetal bovin serum Add-On: No, Screening Media Control DMEM/F12 (1:1), Screening Media Samples DMEM/F12 (1:1)
U2OS [2] = assay: as §1; conditions: Culturing Media DMEM, 1 % Penicillin/Streptomycin, 10% Fetal bovin serum Add-On: No, Screening Media Control DMEM, Screening Media Samples DMEM; remark: listed apart in the source
[3] = Compound Concentration 0.5 uM, Timepoint 12 hours
[4] = Compound Concentration 0.5 uM, Timepoint 24 hours
[5] = Compound Concentration 0.5 uM, Timepoint 36 hours
[6] = Compound Concentration 0.5 uM, Timepoint 60 hours
[7] = Compound Concentration 2 uM, Timepoint 12 hours
[8] = Compound Concentration 2 uM, Timepoint 24 hours
[9] = Compound Concentration 2 uM, Timepoint 36 hours
[10] = Compound Concentration 2 uM, Timepoint 60 hours
[11] = Compound Concentration 10 uM, Timepoint 12 hours
[12] = Compound Concentration 10 uM, Timepoint 24 hours
[13] = Compound Concentration 10 uM, Timepoint 36 hours
[14] = Compound Concentration 10 uM, Timepoint 60 hours
[15] = Compound Concentration 0.5 uM, Timepoint 36 hours, 36 h, 0.5 µM

| SMILES | autophagy induction (U2OS [1]; [3]) [%] | autophagy induction (U2OS [1]; [4]) [%] | autophagy induction (U2OS [1]; [5]) [%] | autophagy induction (U2OS [1]; [6]) [%] | autophagy induction (U2OS [1]; [7]) [%] | autophagy induction (U2OS [1]; [8]) [%] | autophagy induction (U2OS [1]; [9]) [%] | autophagy induction (U2OS [1]; [10]) [%] | autophagy induction (U2OS [1]; [11]) [%] | autophagy induction (U2OS [1]; [12]) [%] | autophagy induction (U2OS [1]; [13]) [%] | autophagy induction (U2OS [1]; [14]) [%] | autophagy induction (U2OS [2]; [3]) [%] | autophagy induction (U2OS [2]; [4]) [%] | autophagy induction (U2OS [2]; [5]) [%] | autophagy induction (U2OS [2]; [6]) [%] | autophagy induction (U2OS [2]; [7]) [%] | autophagy induction (U2OS [2]; [8]) [%] | autophagy induction (U2OS [2]; [9]) [%] | autophagy induction (U2OS [2]; [10]) [%] | further results |
| --- | --- | --- | --- | --- | --- | --- | --- | --- | --- | --- | --- | --- | --- | --- | --- | --- | --- | --- | --- | --- | --- |
| COc1ccc(C2(O)OC(=O)C(c3ccc4c(c3)OCO4)=C2Cc2cc(OC)c(OC)c(OC)c2)cc1 (centres undefined) [PD-156707] | -0.3009 | 0.4369 | -0.07956 | -0.9865 | -2.496 | -1.926 | -0.6682 | -1.242 | -0.3825 | -1.441 | -0.8744 | -0.2319 | 2.427 | 7.779 | 2.534 | -0.8382 | -5.016 | 3.24 | -2.65 | -6.1634 | autophagy induction (TERT-RPE1; [3]): -7.977%; autophagy induction (TERT-RPE1; [4]): -6.312%; autophagy induction (TERT-RPE1; [5]): -1.3569%; autophagy induction (TERT-RPE1; [6]): 6.352%; autophagy induction (TERT-RPE1; [7]): -3.2518%; autophagy induction (TERT-RPE1; [8]): -7.638%; autophagy induction (TERT-RPE1; [9]): -7.617%; autophagy induction (TERT-RPE1; [10]): -7.701%; autophagy induction (TERT-RPE1; [11]): -8.81%; autophagy induction (TERT-RPE1; [12]): -9.172%; autophagy induction (TERT-RPE1; [13]): -8.276%; autophagy induction (TERT-RPE1; [14]): -11.0822%; autophagy induction (U2OS [2]; [11]): -12.4956%; autophagy induction (U2OS [2]; [12]): -10.1664%; autophagy induction (U2OS [2]; [13]): -12.3712%; autophagy induction (U2OS [2]; [14]): -18.4825% |
| CCC[C@H](Oc1cc(C)c(-n2cc(C(F)(F)F)cn2)c(C)c1)c1ccc(C(=O)NCCC(=O)O)cc1 [PF-06291874] | -5.893 | -2.993 | -60.6887 | -2.982 | -4.845 | -1.051 | -59.3505 | -1.615 | -7.606 | -1.597 | -60.4241 | -2.455 | -11.4233 | -19.405 | -11.4713 | -20.1699 | -1.65 | -7.926 | -7.132 | -11.198 | autophagy induction (TERT-RPE1; [15]): -0.178% and 20.1142%; autophagy induction (U2OS [2]; [11]): 3.31%; autophagy induction (U2OS [2]; [12]): 3.258%; autophagy induction (U2OS [2]; [13]): -0.5015%; autophagy induction (U2OS [2]; [14]): -15.9451% |
| Cl.Clc1ccc(CCCOCCCN2CCCCC2)cc1 [PITOLISANT HYDROCHLORIDE] | 15.5533 | 6.616 | -57.7817 | -0.2681 | -2.233 | -2.143 | -60.8013 | -1.476 | 10.0351 | 1.34 | -57.6898 | -1.026 | 13.8608 | 9.201 | 8.758 | 0.1501 | -8.536 | -1.42 | -3.922 | -5.605 | autophagy induction (TERT-RPE1; Compound Concentration 0.5 uM, Timepoint 12 hours, 12 h, 0.5 µM): -3.0454% and 2.896%; autophagy induction (TERT-RPE1; Compound Concentration 0.5 uM, Timepoint 24 hours, 24 h, 0.5 µM): -1.513% and 3.003%; autophagy induction (TERT-RPE1; [15]): -3.944% and 2.632%; autophagy induction (TERT-RPE1; Compound Concentration 0.5 uM, Timepoint 60 hours, 60 h, 0.5 µM): -4.171% and 0.01183%; autophagy induction (TERT-RPE1; Compound Concentration 2 uM, Timepoint 12 hours, 12 h, 2 µM): 0.8347% and 2.672%; autophagy induction (TERT-RPE1; Compound Concentration 2 uM, Timepoint 24 hours, 24 h, 2 µM): 0.6662% and 3.448%; autophagy induction (TERT-RPE1; Compound Concentration 2 uM, Timepoint 36 hours, 36 h, 2 µM): -1.283% and 2.753%; autophagy induction (TERT-RPE1; Compound Concentration 2 uM, Timepoint 60 hours, 60 h, 2 µM): -3.185% and 1.301%; autophagy induction (TERT-RPE1; Compound Concentration 10 uM, Timepoint 36 hours, 36 h, 10 µM): -0.5799% and 21.0375%; autophagy induction (U2OS [2]; [11]): 1.329%; autophagy induction (U2OS [2]; [12]): 3.348%; autophagy induction (U2OS [2]; [13]): 1.993%; autophagy induction (U2OS [2]; [14]): 3.566% |
